Results taken from BindingDB's records for patent US10065950 (Japan Tobacco Inc, 2018).

These compounds were tested against Gag-Pol polyprotein (Human immunodeficiency virus type 1 group M subtype B (isolate NY5), UniProt P12497) (assay: HIV Integrase Inhibitory Assay). Conditions: 25 °C.

**Q.** With `COC[C@@H]1Cn2cc(-c3nnc(Cc4ccc(F)cc4)s3)c(=O)c(O)c2C(=O)N1C(C)C` [US10065950, Example 3] as the compound, how does the IC50 read?
**A.** 8.5 nM

**Q.** `COC[C@H]1CN(C(C)C)C(=O)c2c(O)c(=O)c(-c3nnc(Cc4ccc(F)cc4)s3)cn21` [US10065950, Example 4] was tested. Which IC50 did it give?
**A.** 10 nM

**Q.** For `CC(C)N1C[C@H](C)n2cc(-c3nnc(Cc4ccc(F)cc4)s3)c(=O)c(O)c2C1=O` [US10065950, Example 5], which IC50 is on record?
**A.** 7.4 nM

**Q.** With `CC(C)N1C(=O)c2c(O)c(=O)c(-c3nnc(Cc4ccc(F)cc4)s3)cn2C[C@H]1C` [US10065950, Example 6] as the compound, how does the IC50 read?
**A.** 5.6 nM

**Q.** `CCN1C(=O)c2c(O)c(=O)c(-c3nnc(Cc4ccc(F)cc4)s3)cn2C[C@H]1COC` [US10065950, Example 9] was tested. Which IC50 did it give?
**A.** 9.1 nM

**Q.** How did the IC50 turn out when `COC[C@@H]1Cn2cc(-c3nnc(Cc4ccc(F)cc4)s3)c(=O)c(O)c2C(=O)N1CC1CC1` [US10065950, Example 10] was run?
**A.** 8.8 nM

**Q.** `CCOC[C@@H]1Cn2cc(-c3nnc(Cc4ccc(F)cc4)s3)c(=O)c(O)c2C(=O)N1CC1CC1` [US10065950, Example 11] was tested. Which IC50 did it give?
**A.** 6.4 nM

**Q.** `CCOC[C@@H]1Cn2cc(-c3nnc(Cc4ccc(F)cc4)s3)c(=O)c(O)c2C(=O)N1C(C)C` [US10065950, Example 12] was tested. Which IC50 did it give?
**A.** 7.3 nM

**Q.** `CCOC[C@@H]1Cn2cc(-c3nnc(Cc4ccc(F)cc4)s3)c(=O)c(O)c2C(=O)N1CC` [US10065950, Example 13] was tested. Which IC50 did it give?
**A.** 6.4 nM

**Q.** With `CCN1C(=O)c2c(O)c(=O)c(-c3nnc(Cc4ccc(F)cc4)s3)cn2[C@@H](C)[C@H]1COC` [US10065950, Example 14] as the compound, how does the IC50 read?
**A.** 10 nM

**Q.** How did the IC50 turn out when `COCCOC[C@H]1CN(C(C)C)C(=O)c2c(O)c(=O)c(-c3nnc(Cc4ccc(F)cc4)s3)cn21` [US10065950, Example 15] was run?
**A.** 13 nM

**Q.** `COCCOC[C@H]1CN(C2CC2)C(=O)c2c(O)c(=O)c(-c3nnc(Cc4ccc(F)cc4)s3)cn21` [US10065950, Example 16] was tested. Which IC50 did it give?
**A.** 20 nM

**Q.** With `CCN1C[C@](C)(C(=O)N2CCC2)n2cc(-c3ncc(Cc4ccc(F)cc4)s3)c(=O)c(O)c2C1=O` [US10065950, Example 17] as the compound, how does the IC50 read?
**A.** 7.9 nM
